The values that follow come from PMC7248877, “Synthesis and Spectral Identification of Three Schiff Bases with a 2-(Piperazin-1-yl)-N-(thiophen-2-yl methylene)ethanamine Moiety Acting as Novel Pancreatic Lipase Inhibitors: Thermal, DFT, Antioxidant, Antibacterial, and Molecular Docking Investigations” (Molecules, 2020).

What is called IC50 is the concentration that inhibits the measured activity by half. Low values mean greater potency in that assay, high ones weaker potency in that assay.

The assay addresses T1, porcine pancreatic lipase (Sus scrofa, UniProt P00591).
T1 construct: gene PNLIP
T1 sequence (P00591 1-450): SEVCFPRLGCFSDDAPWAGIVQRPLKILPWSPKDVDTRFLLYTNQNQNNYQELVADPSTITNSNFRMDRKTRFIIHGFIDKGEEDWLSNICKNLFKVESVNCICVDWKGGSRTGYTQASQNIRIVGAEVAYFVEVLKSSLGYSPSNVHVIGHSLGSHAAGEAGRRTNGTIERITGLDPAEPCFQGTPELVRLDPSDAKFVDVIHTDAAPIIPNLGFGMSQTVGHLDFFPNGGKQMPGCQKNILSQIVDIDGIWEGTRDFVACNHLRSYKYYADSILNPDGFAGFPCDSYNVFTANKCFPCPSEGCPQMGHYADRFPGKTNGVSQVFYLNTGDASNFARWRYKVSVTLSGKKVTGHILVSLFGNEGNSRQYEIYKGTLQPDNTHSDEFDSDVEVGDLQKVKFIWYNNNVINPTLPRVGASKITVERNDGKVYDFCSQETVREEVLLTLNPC
Description: p-nitrophenyl butyrate hydrolysis assay, absorbance at […] nm. In kind it is biochemical.
Turning to `CC(=NCCN1CCNCC1)c1ccc(Cl)s1` [L1, N-(1-(5-Chlorothiophen-2-yl)ethylidene)-2-(piperazin-1-yl)ethanamine], the IC50 was 1160 µM.
Next, `C(=N\CCN1CCNCC1)/c1cccs1` [L2, 2-(Piperazin-1-yl)-N-(thiophen-2-ylmethylene)ethanamine]: 2240 µM; `Brc1ccc(C=NCCN2CCNCC2)s1` [L3, N-((5-Bromothiophen-2-yl)methylene)-2-(piperazin-1-yl)ethanamine]: 524 µM.
